Results reported in ChEMBL document CHEMBL1150249, “Antiglioma action of xanthones from Gentiana kochiana: Mechanistic and structure-activity requirements” (Bioorg Med Chem, 2008).
Values belong to the molecule of their own block, whether it stands above or below them. Calls of active or inactive are those of the source. The calls are words filed in the database; no cut-off is given here.

Experiments:
U-251 [1] = assay: Antiproliferative activity against human U251 cells assessed as cell number after 48 hrs by crystal violet assay; format: functional, cell-based; conditions: U-251, 48 h
C6 [2] = assay: Antiproliferative activity against rat C6 cells assessed as cell number after 48 hrs by crystal violet assay; format: functional, cell-based; conditions: C6, 48 h
[3] = Inhibition of bovine brain tubulin by microtubule depolymerization assay; parameters: species or system Bos taurus
U-251 [4] = assay: Antiproliferative activity against human U251 cells assessed as cell number after 24 hrs by crystal violet assay; format: functional, cell-based
U-251 [5] = assay: Antiproliferative activity against human U251 cells assessed as mitochondrial dehydrogenase activity after 72 hrs by MTT assay; format: functional, cell-based
C6 [6] = assay: Cell cycle arrest in rat C6 cells assessed as accumulation at S phase at 50 uM after 24 hrs by flow cytometry relative to control; format: functional
C6 [7] = assay: Cell cycle arrest in rat C6 cells assessed as accumulation at G2/M phase at 50 uM after 24 hrs by flow cytometry relative to control; format: functional
C6 [8] = assay: Antiproliferative activity against rat C6 cells assessed as cell number after 72 hrs by crystal violet assay; format: functional, cell-based
C6 [9] = assay: Antiproliferative activity against rat C6 cells assessed as mitochondrial dehydrogenase activity after 72 hrs by MTT assay; format: functional, cell-based
C6 [10] = assay: Induction apoptosis in rat C6 cells assessed as caspase activation at 50 uM after 36 hrs by flow cytometry relative to control; format: functional
C6 [11] = assay: Induction necrosis in rat C6 cells at 50 uM after 36 hrs by flow cytometry relative to control; format: functional
C6 [12] = assay: Induction of reactive oxygen species production in rat C6 cells at 50 uM after 36 hrs by flow cytometry; format: functional, cell-based
U-251 [13] = assay: Antiproliferative activity against human U251 cells assessed as cell number after 72 hrs by crystal violet assay; format: functional, cell-based
[14] = Antiproliferative activity against Albino Oxford rat primary astrocytes assessed as cell number after 48 hrs by crystal violet assay; format: cell-based; conditions: astrocyte
[15] = Antiproliferative activity against Albino Oxford rat peritoneal macrophages assessed as cell number after 48 hrs by crystal violet assay; format: cell-based; conditions: macrophage
C6 [16] = assay: Cell cycle arrest in rat C6 cells assessed as accumulation at G0/G1 phase at 50 uM after 24 hrs by flow cytometry relative to control; format: functional
[17] = Antiproliferative activity against Albino Oxford rat primary astrocytes assessed as mitochondrial respiration after 48 hrs by MTT assay; format: cell-based; conditions: astrocyte
C6 [18] = assay: Antiproliferative activity against rat C6 cells assessed as mitochondrial dehydrogenase activity after 24 hrs by MTT assay; format: functional, cell-based
[19] = Antiproliferative activity against Albino Oxford rat primary astrocytes assessed as change in morphology by bright field microscopy; format: cell-based; conditions: astrocyte
[20] = Antiproliferative activity against Albino Oxford rat peritoneal macrophages assessed as mitochondrial respiration after 48 hrs by MTT assay; format: cell-based; conditions: macrophage
U-251 [21] = assay: Antiproliferative activity against human U251 cells assessed as mitochondrial dehydrogenase activity after 24 hrs by MTT assay; format: functional, cell-based
C6 [22] = assay: Induction of apoptosis in rat C6 cells assessed as change in morphology at 50 uM after 48 hrs by bright field microscopy; format: functional, cell-based
C6 [23] = assay: Induction of mitochondrial membrane potential depolarization in rat C6 cells assessed as increase in green to red fluorescence ratio at 50 uM after 24 hrs by flow cytometry; format: functional, cell-based
C6 [24] = assay: Antiproliferative activity against rat C6 cells assessed as cell number after 24 hrs by crystal violet assay; format: functional, cell-based
C6 [25] = assay: Induction apoptosis in rat C6 cells at 50 uM after 36 hrs by flow cytometry relative to control; format: functional
C6 [26] = assay: Antiproliferative activity against rat C6 cells assessed as caspase activation at 50 uM after 36 hrs by flow cytometry in presence of N-acetyl-cysteine; format: functional, cell-based
C6 [27] = assay: Antiproliferative activity against rat C6 cells assessed as cell number after 48 hrs by crystal violet assay in presence of N-acetyl-cysteine; format: functional, cell-based

IC50 (U-251 [1]): > 100 µM
Compound: COc1cc(O[C@@H]2O[C@H](CO)[C@@H](O)[C@H](O)[C@H]2O)c2c(=O)c3c(OC)c(O)ccc3oc2c1
IC50 (C6 [2]): > 100 µM

IC50 [3]: > 50 µM | IC50 (U-251 [1]): > 100 µM
Compound: COc1cc(O)c2c(=O)c3c(O)ccc(O)c3oc2c1 [BELLIDIFOLIN]
IC50 (C6 [2]): > 100 µM

IC50 (U-251 [1]): > 100 µM
Compound: COc1cc(O)c2c(=O)c3c(OC)c(OC)ccc3oc2c1 [DECUSSATIN]
IC50 (C6 [2]): > 100 µM

IC50 [3]: > 50 µM | IC50 (U-251 [1]): > 100 µM
Compound: O=c1c2c(O)cc(O)cc2oc2c(O)ccc(O)c12 [DEMETHYLBELLIDIFOLIN]
IC50 (C6 [2]): > 100 µM

IC50 (U-251 [1]): > 100 µM
Compound: COc1cc(O[C@@H]2O[C@H](CO[C@@H]3OC[C@@H](O)[C@H](O)[C@H]3O)[C@@H](O)[C@H](O)[C@H]2O)c2c(=O)c3c(OC)c(O)ccc3oc2c1 [GENTIABAVAROSIDE]
IC50 (C6 [2]): > 100 µM

IC50 [3]: 18 µM | IC50 (U-251 [1]): 27.3 µM
Compound: COc1cc(O)c2c(=O)c3c(O)c(O)ccc3oc2c1 [GENTIAKOCHIANIN]
Activity (U-251 [4]): Active | Activity (U-251 [5]): Active | Activity (C6 [6]): 10.6% | Activity (C6 [7]): 52.5% | Activity (C6 [8]): Active | Activity (C6 [9]): Active | Activity (C6 [10]): 19.7% | Activity (C6 [11]): 5.9% | Activity (C6 [12]): Active | Activity (U-251 [13]): Active | Activity [14]: Non-toxic | Activity [15]: Non-toxic | Activity (C6 [16]): 33.7% | Activity [17]: Non-toxic | Activity (C6 [18]): Active | Activity [19]: Non-toxic | Activity [20]: Non-toxic | Activity (U-251 [21]): Active | Activity (C6 [22]): Active | Activity (C6 [23]): Active | Activity (C6 [24]): Active | Activity (C6 [25]): 24.2% | IC50 (C6 [2]): 31.4 µM

IC50 [3]: > 50 µM | IC50 (U-251 [1]): 53.2 µM
Compound: COc1cc(O)c2c(=O)c3c(OC)c(O)ccc3oc2c1 [GETIACAULEIN]
Activity (U-251 [4]): Active | Activity (U-251 [5]): Active | Activity (C6 [6]): 5.8% | Activity (C6 [7]): 18.8% | Activity (C6 [26]): Active | Activity (C6 [8]): Active | Activity (C6 [9]): Active | Activity (C6 [10]): 6% | Activity (C6 [11]): 5.5% | Activity (C6 [12]): Active | Activity (U-251 [13]): Active | Activity [14]: Non-toxic | Activity [15]: Non-toxic | Activity (C6 [16]): 73.2% | Activity [17]: Non-toxic | Activity (C6 [18]): Active | Activity [19]: Non-toxic | Activity [20]: Non-toxic | Activity (U-251 [21]): Active | Activity (C6 [27]): Active | Activity (C6 [23]): Active | Activity (C6 [24]): Active | Activity (C6 [25]): 4.5% | IC50 (C6 [2]): 56.6 µM

IC50 (U-251 [1]): > 100 µM
Compound: COc1cc(O[C@@H]2O[C@H](CO[C@@H]3OC[C@@H](O)[C@H](O)[C@H]3O)[C@@H](O)[C@H](O)[C@H]2O)c2c(=O)c3c(O)c(O)ccc3oc2c1 [ISOGENTIAKOCHIANOSIDE]
IC50 (C6 [2]): > 100 µM

IC50 [3]: 2.4 µM
Compound: CC(=O)O[C@H]1C(=O)[C@@]2(C)[C@H]([C@H](OC(=O)c3ccccc3)[C@]3(O)C[C@H](OC(=O)[C@H](O)[C@@H](NC(=O)c4ccccc4)c4ccccc4)C(C)=C1C3(C)C)[C@]1(OC(C)=O)CO[C@@H]1C[C@@H]2O [PACLITAXEL]
